Literature values, collected in patent publication US7381426B2, “Targeted delivery of bioactive factors to the systemic skeleton” (Southwest Research Institute, priority 2002, dated 2008).

Test system: hindlimb unloading in rats
Settings: infusion 2 μg/kg/day, hindlimb unloaded rats

For TGF-β, the “effect on unloading-induced bone changes” value is listed as “corrects the decrease in bone mass, calcium content, osteoblast number and mineralization rate”.
